From ChEMBL document CHEMBL1150359, “Identification of non-lipid LPA3 antagonists by virtual screening” (Bioorg Med Chem, 2008)
Values belong to the compound of their own block, whether it stands above or below them. The source made the active and inactive calls. No cut-off for these calls is given here. Peptide text beside a SMILES is read from it. * marks the point of attachment. Dnp = O=[N+]([O-])c1ccc(*)c([N+](=O)[O-])c1

How the values were obtained:
[1] = target: T1, Lysophosphatidic acid receptor 3 (Homo sapiens) (UniProt Q9UBY5); test: Activity at LPA3 receptor expressed in rat RH7777 cells assessed as inhibition of LPA-induced intracellular calcium concentration at 30 uM; format: functional, cell-based
T1 sequence (whole entry): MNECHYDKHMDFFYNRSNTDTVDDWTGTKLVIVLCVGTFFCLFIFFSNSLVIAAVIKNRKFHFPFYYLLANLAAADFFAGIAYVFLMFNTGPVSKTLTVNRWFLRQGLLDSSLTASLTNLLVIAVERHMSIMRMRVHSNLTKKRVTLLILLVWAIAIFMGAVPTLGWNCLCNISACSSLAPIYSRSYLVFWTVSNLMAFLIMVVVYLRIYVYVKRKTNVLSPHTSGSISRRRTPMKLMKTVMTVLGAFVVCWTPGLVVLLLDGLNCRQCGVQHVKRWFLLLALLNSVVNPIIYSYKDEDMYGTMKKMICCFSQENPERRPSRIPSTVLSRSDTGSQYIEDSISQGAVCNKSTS

[2] = target: T2, Lysophosphatidic acid receptor 1 (Homo sapiens, UniProt Q92633); test: Activity at LPA1 receptor expressed in rat RH7777 cells assessed as inhibition of LPA-induced intracellular calcium concentration at 30 uM; format: functional, cell-based
T2 sequence (Q92633 whole entry): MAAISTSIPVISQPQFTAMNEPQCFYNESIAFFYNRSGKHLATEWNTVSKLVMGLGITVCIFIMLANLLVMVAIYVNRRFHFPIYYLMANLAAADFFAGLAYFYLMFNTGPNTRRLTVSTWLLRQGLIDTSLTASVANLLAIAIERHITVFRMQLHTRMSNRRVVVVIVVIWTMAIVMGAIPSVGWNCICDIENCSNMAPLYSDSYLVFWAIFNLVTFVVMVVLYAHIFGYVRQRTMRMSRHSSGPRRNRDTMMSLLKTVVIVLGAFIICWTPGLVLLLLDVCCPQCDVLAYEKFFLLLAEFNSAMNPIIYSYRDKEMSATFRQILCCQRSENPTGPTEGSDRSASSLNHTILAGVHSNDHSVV

[3] = target: T3, Lysophosphatidic acid receptor 3 (Homo sapiens, UniProt Q9UBY5); test: (§1) Antagonist activity at LPA3 receptor expressed in rat RH7777 cells assessed as inhibition of LPA-induced intracellular calcium concentration; format: functional, cell-based
T3 sequence (Q9UBY5 whole entry): T1 sequence (whole entry)

[4] = target: T4, Lysophosphatidic acid receptor 2 (Homo sapiens, UniProt Q9HBW0); test: Antagonist activity at LPA2 receptor expressed in rat RH7777 cells assessed as inhibition of LPA-induced intracellular calcium concentration; format: functional, cell-based
T4 sequence (Q9HBW0 whole entry): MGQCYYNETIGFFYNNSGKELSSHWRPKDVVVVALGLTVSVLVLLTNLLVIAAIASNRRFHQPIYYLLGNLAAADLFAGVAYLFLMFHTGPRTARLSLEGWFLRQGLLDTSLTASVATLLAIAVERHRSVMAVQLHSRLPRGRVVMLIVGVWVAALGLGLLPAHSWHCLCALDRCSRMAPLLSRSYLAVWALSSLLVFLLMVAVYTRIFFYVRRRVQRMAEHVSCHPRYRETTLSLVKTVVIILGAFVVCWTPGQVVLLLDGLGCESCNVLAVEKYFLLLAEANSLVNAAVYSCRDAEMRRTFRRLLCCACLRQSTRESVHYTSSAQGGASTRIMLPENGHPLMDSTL

[5] = target: T3, Lysophosphatidic acid receptor 3; test: Inhibition of LPA3 receptor
[6] = target: T4, Lysophosphatidic acid receptor 2; test: Activity at LPA2 receptor expressed in rat RH7777 cells assessed as inhibition of LPA-induced intracellular calcium concentration at 30 uM; format: functional, cell-based
[7] = target: T2, Lysophosphatidic acid receptor 1; test: Antagonist activity at LPA1 receptor expressed in rat RH7777 cells assessed as inhibition of LPA-induced intracellular calcium concentration; format: functional, cell-based
[8] = target: T1, Lysophosphatidic acid receptor 3 (Homo sapiens); test: Activity at LPA3 receptor expressed in rat RH7777 cells assessed as potentiation of LPA-induced intracellular calcium concentration; format: functional, cell-based
[9] = target: T1, Lysophosphatidic acid receptor 3 (Homo sapiens); test: as §1; format: functional, cell-based
[10] = target: T2, Lysophosphatidic acid receptor 1; test: Agonist activity at LPA1 receptor expressed in rat RH7777 cells assessed as LPA-induced intracellular calcium response; format: functional, cell-based
[11] = target: T4, Lysophosphatidic acid receptor 2; test: Agonist activity at LPA2 receptor expressed in rat RH7777 cells assessed as LPA-induced intracellular calcium response; format: functional, cell-based
[12] = target: T3, Lysophosphatidic acid receptor 3; test: Agonist activity at LPA3 receptor expressed in rat RH7777 cells assessed as LPA-induced intracellular calcium response; format: functional, cell-based

- Imax [1]: 16%
- Imax [2]: 52.2%
Compound: O=C(O)/C=C\C(=O)Nc1cccc(NC(=O)Cc2ccccc2)c1

- Imax [2]: 59%
- IC50 [3]: 13.8 µM
- Ki [3]: 7.02 µM
- IC50 [4]: 0.0283 µM
- Ki [4]: 0.0211 µM
Compound: O=C(O)/C=C/C(=O)Nc1ccc(-c2ccc(NC(=O)/C=C/C(=O)O)cc2)cc1

Compound: CCCCCCC(=O)OC[C@H](COP(O)(O)=S)OC(=O)CCCCCC
- IC50 [5]: 0.184 µM

- Imax [2]: 34.6%
- IC50 [3]: 0.347 µM
- Ki [3]: 0.317 µM
- Imax [6]: 46%
Compound: O=C(O)/C=C\C(=O)Nc1cccc(NC(=O)c2ccccc2)c1

- IC50 [5]: 0.143 µM
Compound: CCCCCCC(=O)OC[C@H](COP(=O)(O)O)OC(=O)CCCCCC

Compound: O=C(O)/C=C/C(=O)Nc1ccc(Oc2cccc(Oc3ccc(NC(=O)/C=C/C(=O)O)cc3)c2)cc1
- IC50 [3]: 1.23 µM
- Ki [3]: 0.31 µM
- IC50 [4]: 0.0089 µM
- Ki [4]: 0.0072 µM
- IC50 [7]: 27.4 µM
- Ki [7]: 13.5 µM

- Activity [8]: Active
Compound: O=P(O)(O)OC[C@H]1O[C@@H](n2cnc3c(NCc4ccccc4)ncnc32)[C@H](O)[C@@H]1O

- Imax [9]: 81.7%
- Imax [4]: 53.3%
Compound: O=C(O)/C=C/C(=O)Nc1cccc(NC(=O)/C=C/C(=O)O)c1C(=O)O

- EC50 [10]: > 12.3 µM
- EC50 [11]: > 11.4 µM
- Emax [1]: 214%
- EC50 [12]: > 11.8 µM
- Emax [7]: 180%
- Emax [6]: 113%
Compound: CCOC(=O)c1ccc(/C=C/c2ccc(S(=O)(=O)O)cc2)cc1

- Imax [9]: 53.7%
- IC50 [4]: > 9.4 µM
- Imax [4]: 88%
- IC50 [7]: > 7.3 µM
- Imax [7]: 59.3%
Compound: Nc1ccc(C(=O)Nc2ccc(C(=O)Nc3ccc4c(O)cc(S(=O)(=O)O)cc4c3)cc2)cc1

Compound: NCC(=O)N[C@@H](CSc1ccc([N+](=O)[O-])cc1[N+](=O)[O-])C(=O)N[C@@H](CCC(=O)O)C(=O)O (H-Gly-Cys(Dnp)-Glu-OH)
- IC50 [3]: 0.024 µM
- Imax [9]: 69.8%

- IC50 [4]: 0.0218 µM
- Ki [4]: 0.0208 µM
- IC50 [7]: 0.22 µM
- Ki [7]: 0.05 µM
Compound: O=C(O)/C=C/C(=O)Nc1cccc(NC(=O)/C=C/C(=O)O)c1
